Data as given in ChEMBL document CHEMBL1201862, “PubChem BioAssay data set” (2004).
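Following 48 hours of exposure in 96-well plates, responses at five concentrations were used to interpolate endpoints linearly. GI50 is the concentration that inhibits growth by half.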 Active and inactive are the calls of the source. Rule as the data show it: active = GI50 up to about 1.1 µM and inactive = higher.

What was measured:
Assay in all cases: growth of human tumour cells (NCI), 48 h
MDA-MB-231 = tested on: MDA-MB-231
SK-OV-3 = tested on: SK-OV-3
Malme-3M = tested on: Malme-3M
HCT-116 = tested on: HCT-116
HCT-15 = tested on: HCT-15
RXF 393 = tested on: RXF 393
BT-549 = tested on: BT-549
MOLT-4 = tested on: MOLT-4
HL-60 = tested on: HL-60
UACC-62 = tested on: UACC-62
SF-295 = tested on: SF-295
DU-145 = tested on: DU-145
UO-31 = tested on: UO-31
HT-29 = tested on: HT-29
NCI-H23 = tested on: NCI-H23
KM12 = tested on: KM12
K562 = tested on: K562
NCI-H460 = tested on: NCI-H460
RPMI-8226 = tested on: RPMI-8226
OVCAR-8 = tested on: OVCAR-8

Row | Structure (SMILES) | GI50 (MDA-MB-231) | GI50 (SK-OV-3) | GI50 (Malme-3M) | GI50 (HCT-116) | GI50 (HCT-15) | GI50 (RXF 393) | GI50 (BT-549) | GI50 (MOLT-4) | GI50 (HL-60) | GI50 (UACC-62) | GI50 (SF-295) | GI50 (DU-145) | GI50 (UO-31) | GI50 (HT-29) | GI50 (NCI-H23) | GI50 (KM12) | GI50 (K562) | GI50 (NCI-H460) | GI50 (RPMI-8226) | GI50 (OVCAR-8)
1 | CN(/N=C(\C(=O)O)c1ccccc1)C1=NCCCCN1 | > 100 µM (inactive) | > 100 µM (inactive) | > 100 µM (inactive) | > 100 µM (inactive) | > 100 µM | > 100 µM (inactive) | > 100 µM (inactive) | > 100 µM (inactive) | > 100 µM (inactive) | > 100 µM (inactive) | > 100 µM (inactive) | > 100 µM (inactive) | > 100 µM (inactive) | > 100 µM (inactive) | > 100 µM (inactive) | > 100 µM (inactive) | > 100 µM (inactive) | > 100 µM (inactive) | > 100 µM (inactive) | > 100 µM (inactive)
2 | O=C(O)CC(C(=O)O)C1c2ccccc2-c2ccccc21 (stereo not given) | > 100 µM (inactive) | 66.8 µM (inactive) | 58.6 µM (inactive) | > 100 µM (inactive) | > 100 µM | > 100 µM (inactive) | > 100 µM (inactive) | 48.2 µM (inactive) | > 100 µM (inactive) | > 100 µM (inactive) | 45.1 µM (inactive) | 17.9 µM (inactive) | > 100 µM (inactive) | > 100 µM (inactive) | 92.3 µM (inactive) | 66.8 µM (inactive) | > 100 µM (inactive) | 33.6 µM (inactive) | 41.1 µM (inactive) | 67 µM (inactive)
3 | Cc1cc(S(=O)(=O)[N-]C(=C(C#N)C#N)[n+]2ccc(N(C)C)cc2)c(SCC(=O)O)cc1Cl | > 100 µM (inactive) | > 100 µM (inactive) | 22.6 µM (inactive) | > 100 µM (inactive) | > 100 µM | > 100 µM (inactive) | > 100 µM (inactive) | > 100 µM (inactive) | > 100 µM (inactive) | > 100 µM (inactive) | > 100 µM (inactive) | > 100 µM (inactive) | > 100 µM (inactive) | > 100 µM (inactive) | > 100 µM (inactive) | > 100 µM (inactive) | > 100 µM (inactive) | > 100 µM (inactive) | > 100 µM (inactive) | > 100 µM (inactive)
4 | COc1ccc2c(C)cc(C)nc2n1 | > 100 µM (inactive) | > 100 µM (inactive) | > 100 µM (inactive) | > 100 µM (inactive) | > 100 µM | > 100 µM (inactive) | > 100 µM (inactive) | > 100 µM (inactive) | > 100 µM (inactive) | > 100 µM (inactive) | > 100 µM (inactive) | > 100 µM (inactive) | > 100 µM (inactive) | > 100 µM (inactive) | > 100 µM (inactive) | > 100 µM (inactive) | > 100 µM (inactive) | > 100 µM (inactive) | > 100 µM (inactive) | > 100 µM (inactive)
5 | COC(=O)C1(Cc2ccccc2)Cc2cc3c(cc2C1=O)CCC3 (stereo not given) | 43.6 µM (inactive) | 41.1 µM (inactive) | 22.5 µM (inactive) | 23.8 µM (inactive) | 31.6 µM | 36.8 µM (inactive) | 43.7 µM (inactive) | 17.1 µM (inactive) | 14.6 µM (inactive) | 33.4 µM (inactive) | 38.2 µM (inactive) | 48.1 µM (inactive) | 34.5 µM (inactive) | 12 µM (inactive) | 56.2 µM (inactive) | 19.8 µM (inactive) | 31.4 µM (inactive) | 4.44 µM (inactive) | 23.1 µM (inactive) | 31.2 µM (inactive)
6 | Cc1ccc2c(O)cc(-c3cccs3)nc2n1 | > 72.6 µM (inactive) | 30.3 µM (inactive) | 15.3 µM (inactive) | 4.81 µM (inactive) | 3.78 µM | 18.1 µM (inactive) | > 100 µM (inactive) | 9.64 µM (inactive) | 2.7 µM (inactive) | 9.04 µM (inactive) | 17 µM (inactive) | 30.5 µM (inactive) | 8.61 µM (inactive) | 16.2 µM (inactive) | 7.71 µM (inactive) | 2.76 µM (inactive) | 5.81 µM (inactive) | 5.08 µM (inactive) | 5.05 µM (inactive) | 18.2 µM (inactive)
